# Results from patent US20150252329A1, “METHODS AND APPARATUS FOR CULTURING CILIATED CELLS” (THE UNIVERSITY OF NORTH CAROLINA AT CHAPEL HILL, priority 2012, published 2015).
# Test system: human airway epithelial cells
# Assay: CBF and MCT speed of HAE cells cultured in the MCTD after stimulation by ATPγS
# Assay type: cell-based
# Details: HAE cell cultures with circular MCT in the MCTD; 1 mM ATPγS in buffer added to apical surface; average of four experiments/donors; p<0.05 vs carrier and baseline
# Text: An MCT culturing device (MCTD) and the MCT system (MCTS) generally configured as shown for the MCTD 100 and MCTS 10 were constructed. The MCTD was constructed on a 30 mm Millicell™ cell culture insert (Millipore, Ireland). The base of an approximately 15 mm diameter central cylinder of cell culture compatible material (nylon, polystyrene) was attached to the center interior of the cell culture insert with an inert, silicone-based sealer. The approximately 4.0 mm outer ring or track defined in the bottom of the cell culture insert between the central cylinder and the cell culture insert was then coated with human Type IV collagen at ˜90 μg/cm^2, air-dried, and UV-irradiated. […] Cultures were examined at the time of media change and the extent of ciliation and the development of continuous, circular transport was recorded. […] High speed videos were recorded from four equally spaced positions around the MCTD. Ciliary beat frequency (CBF) was determined by whole field analysis using the SAVA™ software program (Sisson, Stoner et al. 2003), and the speed and direction of particle transport were determined by tracking particles of debris in the mucus. Alternatively, a small volume of fluid (0.5 μl) containing fluorescent beads was added to the mucus layer, and after equilibration (5-10 minutes), the motion of the fluorescent beads was recorded and analyzed using fluorescent microscopy. […]
smiles,measurement,value
Nc1ncnc2c1ncn2[C@@H]1O[C@H](COP(=O)(O)OP(=O)(O)OP(O)(O)=S)[C@@H](O)[C@H]1O [ATPγS],MCT speed (mucociliary transport),significantly increased
same,ciliary beat frequency (CBF),significantly increased
